The values that follow come from patent US20230123497A1, “NOVEL ANTIBACTERIAL HYDROGELS” (NewSouth Innovations Pty Limited, priority 2020, published 2023).

Where “and” joins values, the source holds several entries; their conditions need not be identical. Identical values can stand only once.

Data set [1] in a line: Hydrogel formation, vial inversion test (critical gel concentration). It counts as physicochemical. The text has this: (§1) The simplest method to determine whether a suitable hydrogel has formed is to use the vial inversion test. Through visual inspection, a material can be categorised as a solution, viscous solution, partial gel, or solid-like gel. A stable hydrogel needs to be able to hold its weight and/or maintain its shape during this assessment.
(§2) The critical gel concentration (CGC) is defined as the minimum mass of a short peptide required to provide a self-supporting hydrogel per unit volume in the vial inversion test (measured as % w/v).
(§3) Pre-weighed samples of short peptide 4 were prepared in aluminium-covered glass vials and Milli-Q water and 2 equivalents of NaOH (1.0 M) were added to make up concentrations of 1% w/v. The resulting suspensions were vortexed for 5 minutes to provide clear yellow solutions with pH 11.
To create a high ionic strength environment, 1 equivalent of NaCl was added and the vial was left to stand without disturbance for 3 hours at room temperature. Meanwhile, as an attempt to form a hydrogel by lowering the pH, 2 equivalents of GdL were added to a high pH solution of 4 followed by gentle mixing. These vials were inverted and allowed to stand overnight to confirm the hydrogel formation.
The formation of hydrogel 4 via the solvent switch method was conducted by dissolving short peptide 4, in an aluminium covered glass vial, with either 50% methanol, ethanol, or dimethyl sulfoxide (DMSO). Respective amounts of Mili-Q water were added to make up concentrations of 1% w/v.
In addition, gelation time was defined as the time (hours) required for 1% w/v of short peptide 4 to form a hydrogel which can be turned upside down without collapsing.
Pre-weighed samples of short peptides 10a-17a, 18, and 19 were prepared in glass vials with 10 mm internal diameter, and Milli-Q water was added to make up concentrations of 1% w/v. The resulting suspensions of short peptides 13, 18, and 19 (as ammonium or guanidinium salts) were slowly warmed until all solid had completely dissolved. GdL (1.5 to 2.0 equivalents) was added to the suspension of short peptides 10a-17a, before heat was applied. To create a high ionic strength environment, 1-5 equivalents of NaCl was added to the viscous solution of 10a-17a to make the total volume up to 1 mL, followed by gentle mixing, and the vial was left to stand without disturbance for 3 hours at room temperature. Subsequently, these vials were inverted and allowed to stand overnight to confirm hydrogel formation.

The nature of data set [2]: Frequency sweep test (FST), rheometer. The data set is classed as physicochemical. The note with it: hydrogels 15-19 at 1% w/v. The protocol:
The mechanical properties of anthranilamide-based cationic hydrogels were assessed using an Anton Paar MCR 302 rheometer with a 25 mm stainless parallel plate configuration.
(§4) Initially, 1 mL of hydrogels were prepared from short peptides 11-13 and 15-19 in glass vials at concentration of 1% w/v. These vials were warmed using a heat gun to transform the hydrogel to the solution phase. Subsequently, 560 μL of the resulting solutions were cast onto the rheometer plate. The other plate was lowered to the measuring position ([…]) and the hydrogel was allowed to stand for 3 hours for the gel to form. The FST was conducted at fixed strain of 0.1% and frequency ranging from 10 Hz to 0.01 Hz. Meanwhile, the strain sweep test (SST) was performed at a frequency of 1 Hz using 0.1% strain to 100% strain. The rheology data were shown as the average of three repeats for each data point.
(§5) The mechanical properties of hydrogels 4 (formed via addition of NaCl or GdL) before and after blue light irradiation were also assessed using an Anton Paar MCR 302 rheometer with a 25 mm stainless parallel plate configuration. Prior to the hydrogel formation, 560 μL of solution phase of short peptide 4 at 1% w/v were transferred onto a rheometer plate. Meanwhile, hydrogel 4, which had been exposed to blue light, was warmed using a heat gun, to provide its solution phase. Subsequently, 560 μL of this solution phase was cast onto the rheometer plate. The other plate was lowered to the measuring position ([…]) and the hydrogel was allowed to stand for 3 hours for the gel to form. The frequency sweep test (FST) was conducted at fixed strain of 0.1% and frequency ranging from 10 Hz to 0.01 Hz. Meanwhile, the SST was performed at a frequency of 1 Hz using 0.1% strain to 100% strain. In addition, the temperature sweep test was conducted to obtain transition glass (Tg) using fixed frequency of 1 Hz and fixed strain of 0.1% with temperature ramping from 25° C. to 90° C. The rheology data were shown as the average of three repeats for each data point.
In the FST, samples were measured over a range of oscillation frequencies (0.1-10 rad/s) at fixed strain, temperature, and oscillation amplitude. Higher frequencies simulate fast motion on a short time-scale, while low frequencies simulate slow motion on a long time-scale, or rest. All of the hydrogels made from the anthranilamide-based short cationic peptides, which passed the vial inversion test, were subjected to the FST using a rheometer to precisely assess their mechanical properties.

The nature of data set [3]: Strain sweep test (SST), linear viscoelastic region. It counts as physicochemical. The note with it: hydrogels at 1% w/v, SST at 1 Hz, 0.1% to 100% strain. On the procedure: as §4, §5
To observe the structural decay in anthranilamide-based cationic hydrogels, the SST was performed by imposing a non-linear strain. SST provides information about the viscoelastic properties of a hydrogel through determination of its linear viscoelastic region (LVER). […] Here, the LVER reported for each hydrogel represents the deviation of storage modulus (G′) from linearity, known as yield point (γy). Yield points have been reported to reflect a point where the rigidity of a hydrogel starts to weaken.

Data set [4] is described as follows: Atomic force microscopy (AFM) of fibers. As to conditions: hydrogel after addition of salt, 4× below CGC. The data set is classed as physicochemical. The protocol: Hydrogels of NO-releasing short peptide 4 (1 drop), at high pH, low pH, and after irradiation, were cast onto a mica substrate. Hydrogels of cationic short peptides 11-13 and 15-19 were prepared at their CGC, 2× below, and 4× below CGC in glass vials. Prior to gelation, one drop of the cationic short peptide solutions was cast onto a mica substrate. Using a glass slide, each droplet was carefully spread and was left to dry overnight before imaging. Imaging was performed using a Bruker Multimode 8 Atomic Force Microscope in Scanasyst Air (PeakForce Tappings) mode, which is based on tapping mode AFM. To prevent damage of soft samples, the imaging parameters were constantly optimized through the force curves that were collected. Bruker Scanasyst-Air probes were used, with a spring constant of 0.4-0.8 N·m^−1 and a tip radius of 2 nm.
To gain some insight on the mechanism of antibacterial action, the released solutions from hydrogel made of primary ammonium 11 were directly cast onto a mica substrate. […] After gently spreading using a glass slide and left to dry overnight, these samples were imaged using a similar manner as describe above.

Data set [5] deals with S. aureus 38. As to the kind of experiment: Antibacterial activity of cationic hydrogels, viable count method. The data set is classed as cell-based, Staphylococcus aureus. As to conditions: hydrogel at 1% w/v in contact with S. aureus, compared to control. On the procedure: The antibacterial activity of the anthranilamide-based cationic hydrogels 11-13 and 15-19 was investigated in vitro against S. aureus. The antibacterial activity of anthranilamide-based cationic hydrogel 11 was also investigated in vitro against E. coli.
First, a single colony of S. aureus 38 or E. coli K12 was grown in Luria-Bertani (LB) broth medium at 37° C. overnight. The resulting bacteria were harvested, via centrifugation, to obtain a bacteria pellet which was re-suspended in the same volume of LB medium, twice. The optical density (OD) value of the resulting culture was adjusted to 0.1 at 600 nm in LB (10^8 cfu·mL^−1). This bacteria solution was then further adjusted to 3×10^4 cfu mL^−1. (CFU or cfu=colony-forming unit). Bacteria solutions (1 mL), which contain either 10^8 CFUs/mL or 3×10^4 CFUs/mL, were gently added to hydrogel 11 at 1% w/v with total volume of 1 mL. Anthranilamide-based cationic hydrogels 11-13 and 15-19 (1 mL) were prepared at 1% w/v in glass vials as described above. On top of these pre-formed hydrogels, 1 mL of bacteria solution was carefully cast. […] As a negative control, a bacterial solution in the absence of hydrogel was used. After being incubated at 37° C. for 18 hours, 100 μL of bacteria solution in each vial was taken and subjected to serial dilution using phosphate buffer solution (PBS). 20 μL of each dilution were carefully transferred into nutrient agar plates and incubated for another 18 hours. The following day, bacterial growth inhibition was quantified using the viable count method. The experiment was performed twice in triplicate and multiple sample comparison was performed using one-way ANOVA at p<0.05.

Data set [6] is described as follows: Hydrogel formation, vial inversion test (critical gel concentration). The data set is classed as physicochemical. The note with it: cationic peptides 15-19. More on the design: key: CG: clear gel; PG: partial gel; OG: opagque gel.
Source text: as §1, §2, §3
To create a high ionic strength environment, 1 equivalent of NaCl was added and the vial was left to stand without disturbance for 3 hours at room temperature. Meanwhile, as an attempt to form a hydrogel by lowering the pH, 2 equivalents of GdL were added to a high pH solution of 4 followed by gentle mixing. These vials were inverted and allowed to stand overnight to confirm the hydrogel formation. […]

On to `CN(C)CCCNC(=O)[C@H](Cc1ccccc1)NC(=O)c1ccc(Cl)cc1NC(=O)c1ccc2ccccc2c1` [Compound 16], for which the CGC in data set [1] (cationic peptides 15-19, triggers GdL, heat and NaCl (18, 19: heat and NaCl)) was 0.2 % W/V. This compound also yielded a pH in data set [1] (hydrogels of cationic peptides 15-19) of 5.5. In data set [2], the “G′/G″ ratio” value amounted to 10.6. In data set [2] (FST fixed strain 0.1%), the “G′ (modulus storage)” value came to 0.53 kPa and the “G″ (modulus loss)” value is listed as 0.05 kPa. The “LVER (linear viscoelastic region)” value in data set [3] is 1.66% and 1.66 ± 0.10%. Besides, in data set [4], the fiber bundle diameter is on record as 99±6 nm. For the same compound, the bacterial reduction in data set [5] was 5.0 Log10. Further, the “Remarks (gel state)” value in data set [6] is given as “OG”.
